# Paper PMC8047011, “Enantiomers of 2-methylglutamate and 2-methylglutamine selectively impact mouse brain metabolism and behavior” (Scientific Reports, 2021)
# Columns and labels:
# [1] = test system: mouse cerebral synaptosomes; assay: Potassium-induced neurotransmitter release assay; format: cell-based; conditions: preincubated with 100 μM substrate 15 min 37 °C; high-potassium KRP buffer
# Method: To each tube, 2.5 μL of a test compound solution (final concentration 100 μM) in Buffer KRP or Buffer KRP alone were added. Samples were incubated for 15 min at 37 °C, briefly chilled on ice, and then immediately centrifuged and washed twice with Buffer KRP. The resulting pellets were then resuspended in either Buffer KRP (500 μL) or Buffer K-KRP (500 μL). Samples were immediately centrifuged or incubated for 5, 10 or 15 min at 37 °C, then centrifuged and washed with Buffer KRP. Resulting pellets were resuspended in 400 μL of 60% ACN containing 2.5 μM Glu-d5 and 2.5 μM Gln-d5 as internal standards.
# [2] = target: T1, GABAB (B1/B2) (Homo sapiens, UniProt Q9UBS5); assay: GABAB binding assay (B1/B2; nonsel); conditions: triplicate, rat, read-out: % of radioligand binding inhibition, GABAB nonsel
# T1 construct: purchased SB Drug Discovery (CNS discovery panel, FLIPR); Eurofins Discovery (Cerep)
# T1 sequence (Q9UBS5 20-961): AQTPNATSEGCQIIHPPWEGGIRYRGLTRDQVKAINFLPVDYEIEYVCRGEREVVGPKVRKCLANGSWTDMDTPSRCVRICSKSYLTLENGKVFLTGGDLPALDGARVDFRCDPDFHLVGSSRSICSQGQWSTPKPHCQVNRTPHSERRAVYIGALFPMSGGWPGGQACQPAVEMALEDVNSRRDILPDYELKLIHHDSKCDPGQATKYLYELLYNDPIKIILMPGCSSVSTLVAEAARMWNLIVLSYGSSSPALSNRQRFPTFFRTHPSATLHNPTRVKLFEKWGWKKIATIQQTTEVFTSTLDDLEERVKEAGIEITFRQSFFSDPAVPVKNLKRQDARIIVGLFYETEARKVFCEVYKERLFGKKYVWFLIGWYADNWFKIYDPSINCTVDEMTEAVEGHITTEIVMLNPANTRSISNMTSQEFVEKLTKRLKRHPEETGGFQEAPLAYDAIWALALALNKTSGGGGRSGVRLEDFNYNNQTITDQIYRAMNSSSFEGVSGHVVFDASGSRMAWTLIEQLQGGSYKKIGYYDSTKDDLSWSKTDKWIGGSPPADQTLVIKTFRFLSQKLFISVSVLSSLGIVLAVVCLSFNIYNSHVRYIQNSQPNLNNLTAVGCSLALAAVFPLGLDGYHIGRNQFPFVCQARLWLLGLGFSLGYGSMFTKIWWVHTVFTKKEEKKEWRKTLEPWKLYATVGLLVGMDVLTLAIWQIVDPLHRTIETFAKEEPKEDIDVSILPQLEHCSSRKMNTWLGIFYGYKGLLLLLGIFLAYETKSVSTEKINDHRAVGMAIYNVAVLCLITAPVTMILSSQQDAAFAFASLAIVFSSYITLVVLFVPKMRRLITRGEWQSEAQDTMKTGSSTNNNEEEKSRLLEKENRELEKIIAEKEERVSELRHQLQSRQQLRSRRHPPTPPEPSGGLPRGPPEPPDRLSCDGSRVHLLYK
# T1 sequence (O75899 42-941 partner): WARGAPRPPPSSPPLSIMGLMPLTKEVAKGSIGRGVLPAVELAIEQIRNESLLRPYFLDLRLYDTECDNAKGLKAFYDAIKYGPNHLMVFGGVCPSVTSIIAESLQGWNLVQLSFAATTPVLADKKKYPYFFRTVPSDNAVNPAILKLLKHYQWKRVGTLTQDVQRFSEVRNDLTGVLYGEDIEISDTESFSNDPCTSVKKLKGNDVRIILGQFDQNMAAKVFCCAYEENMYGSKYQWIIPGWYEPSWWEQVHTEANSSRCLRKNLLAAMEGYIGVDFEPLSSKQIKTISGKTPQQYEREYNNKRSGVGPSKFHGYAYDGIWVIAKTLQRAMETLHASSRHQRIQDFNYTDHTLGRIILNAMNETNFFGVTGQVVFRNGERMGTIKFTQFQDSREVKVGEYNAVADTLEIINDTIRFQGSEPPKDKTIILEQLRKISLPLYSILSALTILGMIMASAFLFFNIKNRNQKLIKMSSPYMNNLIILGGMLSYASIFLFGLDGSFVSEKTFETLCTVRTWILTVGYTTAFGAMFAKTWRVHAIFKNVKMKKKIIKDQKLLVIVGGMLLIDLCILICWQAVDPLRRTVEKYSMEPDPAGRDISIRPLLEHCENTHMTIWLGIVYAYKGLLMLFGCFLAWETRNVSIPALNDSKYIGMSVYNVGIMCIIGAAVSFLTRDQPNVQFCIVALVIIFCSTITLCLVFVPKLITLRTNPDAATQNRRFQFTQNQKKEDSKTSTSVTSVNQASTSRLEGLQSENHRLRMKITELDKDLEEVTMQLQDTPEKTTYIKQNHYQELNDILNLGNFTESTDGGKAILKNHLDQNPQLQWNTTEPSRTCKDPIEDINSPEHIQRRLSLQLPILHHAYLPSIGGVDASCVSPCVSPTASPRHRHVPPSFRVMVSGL
# Method: (§1) mGluR1, mGluR2, mGluR5 and GABAB binding assays were performed by Eurofins Discovery. […]
# mGluR5 and GABAB binding assays were performed using recombinant CHO-K1 cells and
# (§2) [3H]CGP-54626 and [3H]quisqalic acid, respectively. All compounds were tested at a single
# (§3) concentration of 100 uM in triplicate. […]
# [3] = target: T2, mGluR1 (Rattus norvegicus, UniProt P23385); assay: mGluR1 radioligand binding assay; conditions: triplicate
# T2 construct: purchased SB Drug Discovery (CNS discovery panel, FLIPR); Eurofins Discovery (Cerep)
# T2 sequence (P23385 19-1199): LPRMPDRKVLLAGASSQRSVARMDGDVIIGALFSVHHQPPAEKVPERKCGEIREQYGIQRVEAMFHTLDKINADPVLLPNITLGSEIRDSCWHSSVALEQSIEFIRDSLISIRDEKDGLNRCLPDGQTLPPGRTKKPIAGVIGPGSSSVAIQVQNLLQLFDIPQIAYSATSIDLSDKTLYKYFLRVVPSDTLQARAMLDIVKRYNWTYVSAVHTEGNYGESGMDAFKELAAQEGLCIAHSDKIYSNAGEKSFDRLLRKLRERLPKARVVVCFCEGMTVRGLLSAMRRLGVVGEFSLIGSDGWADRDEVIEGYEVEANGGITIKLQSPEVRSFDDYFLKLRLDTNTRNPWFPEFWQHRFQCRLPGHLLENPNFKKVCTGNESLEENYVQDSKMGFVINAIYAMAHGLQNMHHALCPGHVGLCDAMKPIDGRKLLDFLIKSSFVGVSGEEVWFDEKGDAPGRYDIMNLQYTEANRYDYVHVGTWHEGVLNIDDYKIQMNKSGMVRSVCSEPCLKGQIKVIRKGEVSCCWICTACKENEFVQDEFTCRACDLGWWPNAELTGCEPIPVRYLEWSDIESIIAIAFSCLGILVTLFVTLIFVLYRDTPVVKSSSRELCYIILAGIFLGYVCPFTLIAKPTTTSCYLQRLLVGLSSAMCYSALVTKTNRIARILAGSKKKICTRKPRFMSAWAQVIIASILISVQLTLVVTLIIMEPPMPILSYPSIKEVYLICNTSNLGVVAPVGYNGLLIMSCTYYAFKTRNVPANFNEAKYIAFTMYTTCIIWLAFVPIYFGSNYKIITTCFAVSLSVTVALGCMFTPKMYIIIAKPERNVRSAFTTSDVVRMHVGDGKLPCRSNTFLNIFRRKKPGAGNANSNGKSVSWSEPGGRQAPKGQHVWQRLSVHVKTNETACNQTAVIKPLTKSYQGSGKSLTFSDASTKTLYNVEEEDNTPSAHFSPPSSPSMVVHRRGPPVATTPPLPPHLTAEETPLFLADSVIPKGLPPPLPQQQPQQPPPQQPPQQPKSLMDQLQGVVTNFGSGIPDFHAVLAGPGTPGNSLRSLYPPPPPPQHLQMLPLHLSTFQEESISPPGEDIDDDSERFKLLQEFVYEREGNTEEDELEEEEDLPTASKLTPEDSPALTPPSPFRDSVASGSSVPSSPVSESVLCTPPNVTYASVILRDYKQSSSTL
# Method: as §1, §2, §3
# [4] = target: T3, GABAA α2β3γ2 (Homo sapiens, UniProt P28472+P47869); assay: FLIPR functional receptor assay, GABAA α2β3γ2; format: cell-based; conditions: agonist mode; top test concentration 1 mM
# T3 construct: host or cells: HEK 293
# T3 sequence (P47869 29-451): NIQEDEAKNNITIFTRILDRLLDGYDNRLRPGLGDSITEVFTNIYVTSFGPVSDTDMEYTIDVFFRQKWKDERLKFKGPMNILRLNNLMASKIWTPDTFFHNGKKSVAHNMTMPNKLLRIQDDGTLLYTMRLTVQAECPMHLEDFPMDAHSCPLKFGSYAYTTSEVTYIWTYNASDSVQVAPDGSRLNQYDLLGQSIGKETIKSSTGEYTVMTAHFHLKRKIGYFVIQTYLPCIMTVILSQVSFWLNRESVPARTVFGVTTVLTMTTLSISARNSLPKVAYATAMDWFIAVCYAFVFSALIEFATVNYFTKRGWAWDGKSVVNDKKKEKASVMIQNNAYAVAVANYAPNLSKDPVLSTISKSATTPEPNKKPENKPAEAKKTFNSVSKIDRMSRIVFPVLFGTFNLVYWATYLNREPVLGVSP
# T3 sequence (P28472 26-473): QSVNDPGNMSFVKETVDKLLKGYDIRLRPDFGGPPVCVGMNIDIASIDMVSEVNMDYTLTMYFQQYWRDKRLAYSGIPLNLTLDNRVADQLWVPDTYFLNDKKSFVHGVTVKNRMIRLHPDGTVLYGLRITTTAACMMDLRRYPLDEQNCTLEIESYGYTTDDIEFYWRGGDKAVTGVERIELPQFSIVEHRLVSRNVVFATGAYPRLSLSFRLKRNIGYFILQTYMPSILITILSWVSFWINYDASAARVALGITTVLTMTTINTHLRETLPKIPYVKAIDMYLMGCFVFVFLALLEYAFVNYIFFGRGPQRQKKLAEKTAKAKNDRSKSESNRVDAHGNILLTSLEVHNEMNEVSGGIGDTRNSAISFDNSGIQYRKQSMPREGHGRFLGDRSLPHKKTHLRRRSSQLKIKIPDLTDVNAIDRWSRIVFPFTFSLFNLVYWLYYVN
# T3 sequence (P18507 40-475 partner): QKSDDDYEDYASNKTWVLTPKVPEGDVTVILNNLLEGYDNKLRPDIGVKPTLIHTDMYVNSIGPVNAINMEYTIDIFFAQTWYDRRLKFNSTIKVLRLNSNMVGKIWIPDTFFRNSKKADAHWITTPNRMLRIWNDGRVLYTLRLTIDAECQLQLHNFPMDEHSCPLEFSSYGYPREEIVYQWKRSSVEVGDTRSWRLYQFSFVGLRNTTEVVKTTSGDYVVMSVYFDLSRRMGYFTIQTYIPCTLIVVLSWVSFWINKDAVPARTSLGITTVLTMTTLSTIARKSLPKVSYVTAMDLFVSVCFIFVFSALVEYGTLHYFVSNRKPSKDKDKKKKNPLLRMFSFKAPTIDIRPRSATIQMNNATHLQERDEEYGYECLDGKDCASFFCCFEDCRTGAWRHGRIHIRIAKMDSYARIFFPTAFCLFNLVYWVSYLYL
# Method: (§4) Receptor functional & binding assays
# (§5) Functional assays of all GABAA, NMDA (GluN2A–GluN2D) and AMPA (GluA2) receptor subunits were performed by SB Drug Discovery as a part of their CNS discovery panel using FLIPR technology. Briefly, receptor-expressing HEK 293 cell lines were incubated in a red membrane potential dye in HEPES:HBSS pH 7.4 buffer and the fluorescence (λex: 488, λex: 510–570) was monitored over time as the test compounds and/or reference compounds were added to the solution. In agonist assay, only test compounds were added. In positive allosteric modulator assay, cells were preincubated with test compounds and then low concentration (approximately EC20) of an appropriate agonist was added. In antagonist assay, cells were preincubated with test compounds and then high concentration (approximately EC80) of an appropriate agonist was added. For GABAA assays, GABA was used as the agonist, picrotoxin was used as the reference antagonist and allopregnanolone was used as the reference positive allosteric modulator (PAM). For NMDA assays, a mixture of glutamate, glycine and CaCl2 was used as the agonist, MK801 was the reference antagonist and pregnenolone sulfate or GNE 9278 were used as reference PAMs. […] All compounds were tested at 7 concentration points in triplicate and EC50/IC50 was determined where applicable. […]
# [5] = target: T4, GABAA α4β3γ2 (Homo sapiens, UniProt P28472+P48169); assay: FLIPR functional receptor assay, GABAA α4β3γ2; format: cell-based; conditions: agonist mode; top test concentration 1 mM
# T4 construct: host or cells: HEK 293
# T4 sequence (P48169 36-554): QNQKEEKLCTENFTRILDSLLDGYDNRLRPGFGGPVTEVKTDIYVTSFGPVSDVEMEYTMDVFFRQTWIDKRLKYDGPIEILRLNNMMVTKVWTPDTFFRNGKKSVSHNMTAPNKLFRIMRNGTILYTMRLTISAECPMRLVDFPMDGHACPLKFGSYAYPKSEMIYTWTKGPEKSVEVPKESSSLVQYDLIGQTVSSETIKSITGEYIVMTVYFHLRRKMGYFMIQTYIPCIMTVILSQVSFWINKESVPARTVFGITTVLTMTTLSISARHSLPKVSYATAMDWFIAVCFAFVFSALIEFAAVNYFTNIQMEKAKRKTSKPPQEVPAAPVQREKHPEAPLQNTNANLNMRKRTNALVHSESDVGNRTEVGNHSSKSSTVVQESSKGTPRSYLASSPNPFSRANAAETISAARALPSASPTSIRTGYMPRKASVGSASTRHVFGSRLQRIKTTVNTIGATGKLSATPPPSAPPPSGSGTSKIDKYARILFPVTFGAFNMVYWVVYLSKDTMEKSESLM
# T4 sequence (P28472 26-473): as the sequence (P28472 26-473) above
# T4 sequence (P18507 40-475 partner): as the sequence (P18507 40-475 partner) above
# Method: intensity and lower number of tone and shock (2x) pairings to create a greater opportunity to observe pharmacologic activity.
# as §4
# as §5, with “(PAM).” for “(PAM). For NMDA assays, a mixture of glutamate, glycine and CaCl2 was used as the agonist, MK801 was the reference antagonist and pregnenolone sulfate or GNE 9278 were used as reference PAMs.”
# [6] = test system: mouse cerebral synaptosomes; assay: Synaptosomal neurotransmitter uptake assay; format: cell-based; conditions: 10 μM substrate; for Transport into synaptosomes: 37 °C
# Method: Mouse cerebral synaptosomes were prepared according to published methods. See Supplementary Methods for details. 500 μL aliquots of the synaptosome suspension were transferred to pre-chilled microcentrifuge tubes for experiments. Centrifugations were at 8000g for 4 min at 4 °C, unless stated otherwise, and all samples were stored at − 80 °C.
# To each tube, 5 μL of a test compound solution (final concentration 10 μM) in Buffer KRP or Buffer KRP alone were added. Samples were incubated at 4 °C or 37 °C for 1, 10, or 30 min and then immediately centrifuged and washed twice by resuspension–centrifugation with Buffer S (0.5 mL). Resulting pellets were resuspended in 170 μL of 0.1% aqueous formic acid and mixed with 330 μL of ACN.
# Buffer S (4 mL, × 1) and Buffer KRP (2 mL, × 3). The resulting pellet was resuspended in 3 mL of Buffer KRP and filtered on Ultrafree-CL 5 μm PVDF centrifugal device (1,000g for 4 min at 4 °C). The filtrate was diluted to 15 mL with ice cold Buffer KRP and kept on ice. The synaptosome preparation was used immediately in the following experiments.
# Synaptosomal neurotransmitter uptake assay
# 96-well plate experiments: 250 μL aliquots of the synaptosome suspension were transferred to two 0.8-mL 96 well plates, one on ice (0 °C samples only) and one in a thermoblock (37 °C samples only), and equilibrated for 10 min. 5 μL of a test compound (0.5 mM; final concentration: 10 μM) in Buffer KRP or Buffer KRP blank were added 10, 20 or 30 min before the incubation termination. “0 min” samples were prepared by placing the test compound solution in a separate pre-chilled V-shape bottom 2-mL 96 well plate; at the end of incubation 200 μL aliquots of all samples were transferred to the 2-mL 96 well plate and centrifuged (2,500g for 15 min at 4 °C) immediately. The resulting pellets were rinsed with Buffer KRP, followed by centrifugation, twice, then resuspended in 200 μL of 60% ACN containing 2.5 μM Glu-d5 as internal standard and stored at –80 °C until analysis. […]
SMILES,Potassium-induced release from preloaded synaptosomes [1],inhibition at 100 µM [2] [%],inhibition at 100 µM [3] [%],EC50 [4] [µM],EC50 [5] [µM],Synaptosomal uptake rate relative to the R enantiomer [6],Transport into synaptosomes [6]
"C[C@](N)(CCC(=O)O)C(=O)O [(S)-2MeGlu, (S)-2-methylglutamic acid]",released upon depolarization in a manner very similar to endogenous Glu,5,6,342,> 1000,approximately threefold faster,transported into synaptosomes
"C[C@@](N)(CCC(=O)O)C(=O)O [(R)-2MeGlu, (R)-2-methylglutamic acid]",not significantly altered by depolarization,5,-3,622,> 1000,–,transported into synaptosomes
